From paper PMC3269530 (Journal of Molecular Biology, 2011)

Key:
[1] = system: R277E mutant of ArfA-c(D236A); format: binding, M. tuberculosis
[2] = system: ArfA-c(D236A); format: binding, M. tuberculosis; conditions: pH 7

uridine-5'-diphosphate–MurNAc–L-Ala–D-γ-Glu–m-DAP–D-Ala– D-Ala [UMDP]
changes in the NMR spectrum of the R277E mutant [1]: no changes were observed | peak changes in 1H/15N NMR spectrum on addition of peptide [2]: several peak frequency and intensity changes
